Key:
[1] = human, serum
[2] = human, serum; remark: listed apart in the source
[3] = human
[4] = human; remark: listed apart in the source
[5] = human; remark: listed apart in the source
[6] = Highest frequency of moderate liver toxicity observed during clinical trials, expressed as a percentage. [column '% BIOL' in source]; conditions: human
[7] = human; remark: listed apart in the source
[8] = Highest frequency of acute liver toxicity observed during clinical trials, expressed as a percentage. [column '% AIGUE' in source]; conditions: human
[9] = Presence of at least one case with successful reintroduction. [column 'REINT' in source]; conditions: human
[10] = human; remark: listed apart in the source
[11] = human; remark: listed apart in the source
[12] = human, serum, 4383 h
[13] = human; remark: listed apart in the source
[14] = human; remark: listed apart in the source
[15] = human; remark: listed apart in the source
[16] = Proposed mechanism(s) of liver damage. [column 'MEC' in source]; conditions: human
[17] = Comments (NB not yet translated). [column 'COMMENTAIRES' in source]; conditions: human
[18] = Times to onset, minimal and maximal, observed in the indexed observations. [column 'DELAI' in source]; conditions: human
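Throughout, for Hepatotoxicity (association with vascular disease): count of indexed literature references reporting vascular liver injury in humans, e.g. peliosis hepatitis, hepatic veno-occlusive disease or Budd-Chiari syndrome.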
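Throughout, for Hepatotoxicity (benign tumour): value is a count of indexed literature references citing a benign tumour confirmed by histopathology.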
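Throughout, for Hepatotoxicity (choleostasis): human cholestatic liver injury, shown by histopathology or by peak ALT or AST elevation over alkaline phosphatase ratio below 2, value counts indexed literature reports.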
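Throughout, for Hepatotoxicity (chronic liver disease): chronic liver injury confirmed by histopathology or persistently raised serum aminotransferase activity beyond 6 months, value given as the count of indexed literature references.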
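Throughout, for Hepatotoxicity (cirrhosis): value is a count of indexed literature references reporting cirrhosis confirmed by histopathology.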
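Throughout, for Hepatotoxicity (cytolytic): human cytolytic liver injury, shown by histopathology or by a ratio above 5 of peak ALT or AST elevation to alkaline phosphatase elevation, value counts indexed references.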
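Throughout, for Hepatotoxicity (granulomatous hepatitis): value is a count of indexed literature references reporting granulomatous liver disease confirmed by histopathology.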
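Throughout, for Hepatotoxicity (malignant tumour): malignant tumour confirmed by histopathology, value gives the count of indexed literature references reporting it.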
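Throughout, for Hepatotoxicity (severe hepatitis): human clinical data: severe hepatitis, meaning potentially life-threatening liver failure or clinically observed cases, the value counts how many indexed literature references report it.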
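Throughout, for Hepatotoxicity (steatosis): steatosis confirmed by histopathology, value is the count of indexed references.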

| Compound | Hepatotoxicity (moderate) [1] | Hepatotoxicity (acute) [2] | Hepatotoxicity (association with vascular disease) [3] | Hepatotoxicity (malignant tumour) [4] | Hepatotoxicity (benign tumour) [5] | Hepatotoxicity (moderate) [6] [%] | Hepatotoxicity (steatosis) [7] | Hepatotoxicity (acute) [8] [%] | Hepatotoxicity (successful reintroduction) [9] | Hepatotoxicity (granulomatous hepatitis) [10] | Hepatotoxicity (severe hepatitis) [11] | Hepatotoxicity (chronic liver disease) [12] | Hepatotoxicity (cirrhosis) [13] | Hepatotoxicity (choleostasis) [14] | Hepatotoxicity (cytolytic) [15] | Hepatotoxicity (mechanism) [16] | Hepatotoxicity (comment) [17] | Hepatotoxicity (time to onset) [18] |
| --- | --- | --- | --- | --- | --- | --- | --- | --- | --- | --- | --- | --- | --- | --- | --- | --- | --- | --- |
| COc1cc(C(=S)N2CCOCC2)cc(OC)c1OC [TRITIOZINE] | 1 | 2 | 0 | 0 | 0 | 3 | 0 | 0 | yes | 0 | 0 | 0 | 0 | 0 | 0 | – | – | – |
| CN1CCN(C(c2ccccc2)c2ccccc2)CC1 [CYCLIZINE] | 0 | 1 | 0 | 0 | 0 | 0 | 0 | 0 | yes | 0 | 0 | 0 | 0 | 0 | 0 | – | – | – |
| O=C1CN2Cc3c(ccc(Cl)c3Cl)N=C2N1 [ANAGRELIDE] | 1 | 1 | 0 | 0 | 0 | 0.2 | 0 | 0 | yes | 0 | 0 | 0 | 0 | 1 | 0 | – | – | – |
| O=[N+]([O-])O[C@H]1CO[C@H]2[C@@H]1OC[C@H]2O[N+](=O)[O-] [ISOSORBIDE DINITRATE] | 1 | 1 | 0 | 0 | 0 | 0 | 0 | 0 | yes | 0 | 0 | 0 | 0 | 0 | 0 | – | – | – |
| CC(=O)Oc1cccc2c1C(=O)c1c(OC(C)=O)cc(C(=O)O)cc1C2=O [DIACEREIN] | 0 | 2 | 0 | 0 | 0 | 0 | 0 | 0 | – | 0 | 1 | 0 | 0 | 1 | 1 | Allergic | AC_ANTI-N | 10 days |
| CN(CCOc1ccc(CC2SC(=O)NC2=O)cc1)c1ccccn1 (configuration not stated) [ROSIGLITAZONE] | 8 | 10 | 0 | 0 | 0 | 0.2 | 0 | 0 | – | 3 | 5 | 1 | 0 | 2 | 7 | Allergic | CHOLANGITE | 1 week - 4 years |
| CCc1nc(N)nc(N)c1-c1ccc(Cl)cc1 [PYRIMETHAMINE] | 8 | 1 | 0 | 0 | 0 | 28.6 | 1 | 0 | – | 1 | 0 | 0 | 0 | 1 | 0 | Dose-dependant | I/LORAZEPAM | 4 hours - 4 months |
| CCCc1cc(C(N)=S)ccn1 [PROTIONAMIDE] | 8 | 7 | 0 | 0 | 0 | 13 | 0 | 2.5 | – | 0 | 2 | 0 | 0 | 0 | 4 | Dose-dependant | I/PILULE | 3 months - 1 year |
| CO[C@@]1(NC(=O)Cc2cccs2)C(=O)N2C(C(=O)O)=C(COC(N)=O)CS[C@@H]21 [CEFOXITIN] | 18 | 1 | 0 | 0 | 0 | 25.8 | 0 | 0 | – | 0 | 0 | 0 | 0 | 1 | 0 | Allergic | CHOLESTASE_PROLONGEE | 17 days |
| Cc1cccc(C)c1NC(=O)C(C)N (configuration not stated) [TOCAINIDE] | 2 | 6 | 0 | 0 | 0 | 1.7 | 1 | 0 | – | 1 | 0 | 0 | 0 | 4 | 5 | Allergic | AC_ANTI-N/-ML | 1 month - 2 months |

From ChEMBL document CHEMBL3137667, “[Drug-induced liver injury; fourteenth updated edition of the bibliographic database of liver injuries and related drugs]” (Gastroenterol Clin Biol, 2004)
